According to patent US8680091B2, “6-arylalkylamino-2,3,4,5-tetrahydro-1H-benzo[d]azepines as 5-HT2C receptor agonists” (Eli Lilly and Company, priority 2005, dated 2014):

Tests used:
male NIH Swiss mice [1] = assay: Marble burying assay (with rotorod); format: in vivo, mouse; details: marbles buried in 30 min, rotorod for motor impairment
Excerpt: Marble burying in mice has been used to model anxiety disorders including obsessive-compulsive disorders (OCD) due to ethological study of the behavior (e.g. Gyertyan I. “Analysis of the marble burying response: Marbles serve to measure digging rather than evoke burying”, Behavioural Pharmacology 6: 24-31, (1995)) and due to the pharmacological effects of clinical standards (c.f., Njung'E K. Handley S L. “Evaluation of marble-burying behavior as a model of anxiety”, Pharmacology, Biochemistry & Behavior. 38: 63-67, (1991)); Borsini F., Podhorna J., and Marazziti, D. “Do animal models of anxiety predict anxiolytic effects of antidepressants?”, Psychopharmacology 163: 121-141, (2002)).
House experimentally-naïve male, NIH Swiss mice (Harlan Sprague-Dawley, Indianapolis, Ind.) weighing between 28-35 g in groups of 12 for at least three days prior to testing in a vivarium with 12 h light and dark cycles. Conduct experiments during the light cycle in a dimly lit experimental testing room. Dose mice with vehicle or test compound and, after a specified pretreatment interval (generally 30 min.), place each mouse individually on a rotorod (Ugo Basile 7650) operating at a speed of 6 revolutions/min. and observe for falling. […]
Clinically effective standard compounds suppress marble burying at doses that are devoid of motor-impairing effects as measured on the rotorod. […]

Wistar rats [2] = details: clinically effective OCD treatment standard compounds; cited from earlier work
Wistar rats [3] = assay: Schedule-induced polydipsia; format: in vivo, rat
Excerpt: Schedule-Induced Polydipsia
Food-deprived rats exposed to intermittent presentations of food will drink amounts of water that are far in excess of their normal daily intake and in excess of their intake when given all of their food at one time (Falk J L. “Production of polydipsia in normal rats by an intermittent food schedule”, Science 133: 195-196, (1961)). This excessive behavior is persistent and has been used to model OCD.
Maintain Wistar rats on a food restricted diet (to maintain 85% free feeding weight), but with free access to water. Train the rats in a behavioral testing chamber to press a lever to receive a food pellet under a fixed interval schedule, such that the rats are rewarded with a 45 mg food pellet the first time they press a lever after a 120 second interval has elapsed. The fixed interval is then reset to 120 seconds and the process repeated. Thus, during a 90 min. test session, the rats can earn a maximum of 45 pellets. The behavioral chamber is also equipped with a water bottle that is weighed before and after the session to determine the amount of water consumed.
Administer test compounds on Tuesdays and Fridays. […] Compare the rates of lever pressing and water consumption for each animal's performance during sessions after test compound treatment with that animal's performance during control sessions, expressed as a percent of the control rate. […]

male NIH Swiss mice [4] = assay: Nestlet shredding; format: in vivo, mouse; details: 30 min, rotorod for motor impairment
Excerpt: Mice naturally will construct nests of material available in their living environment. Since this behavior is obsessive in nature, it has been used to model OCD (Xia Li, Denise Morrow and Jeffrey M. Witkin, “Decreases in nestlet shredding of mice by serotonin uptake inhibitors: comparison with marble burying”, Psychopharmacology, submitted Jul. 14, 2003). House experimentally-naïve male, NIH Swiss mice (Harlan Sprague-Dawley, Indianapolis, Ind.) weighing between 28-35 g in groups of 12 for at least three days prior to testing in a vivarium with a 12 h light/dark cycle. Conduct experiments during the light cycle in an experimental room with normal overhead fluorescent lighting. Dose mice with vehicle or test compound and after a specified pretreatment interval (generally 30 min.), place the mice individually in a 17×28×12 cm high plastic tub with about 5 mm sawdust shavings on the floor along with a pre-weighed multi-ply gauze pad (51 mm square). After 30 min., weigh the remainder of the gauze pad not removed by the mouse. Determine the weight of the gauze used for nestlet construction by subtraction. Compare the results for test compound treated mice to the results for vehicle control treated mice with Dunnett's test.
Clinically effective OCD treatment standard compounds suppress nestlet shredding at doses that are devoid of motor-impairing effects as measured by the rotorod test. […]

male NIH Swiss mice [5] = details: compounds used to treat OCD, literature; cited from earlier work

With `CN(C)CCCN1c2ccccc2Sc2ccc(Cl)cc21` [chlorpromazine] the Marble burying (male NIH Swiss mice [1]) was “decrease marble burying only at doses that also disrupt rotorod performance”.
In the case of `CN(C)CCCN1c2ccccc2CCc2ccc(Cl)cc21` [chlomipramine], the “Schedule-induced polydipsia (clinical standards)” value (Wistar rats [2]) is listed as “suppress schedule-induced polydipsia without producing notable changes in motor patterns, food intake, or behavior the following day”.
In the case of `C[C@H](N)Cc1ccccc1` [d-amphetamine], the “Effect on schedule-induced polydipsia with co-administered 5-HT2C antagonist” value (Wistar rats [3]; co-administration of the 5-HT2C receptor antagonist) is reported as “not prevented by the 5HT2C receptor antagonist”, the “Schedule-induced polydipsia (water consumption)” value (Wistar rats [3]; food-restricted rats, 90 min session) is reported as “decreases excessive drinking only at behaviorally stimulating doses” and the Nestlet shredding (male NIH Swiss mice [4]) is reported as “decreases nestlet shredding only at doses that produce motoric side effects”.
For `CNCCC(Oc1ccc(C(F)(F)F)cc1)c1ccccc1` (stereo not shown) [fluoxetine], the “Schedule-induced polydipsia (clinical standards)” value (Wistar rats [2]) is given as “suppress schedule-induced polydipsia without producing notable changes in motor patterns, food intake, or behavior the following day” and the “Marble burying (clinical standards)” value (male NIH Swiss mice [5]) is given as “decrease burying”.
